Values joined by “and” are separate entries in the source; they are usually repeats but may differ in a detail not shown here. Equal values may be shown once.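 All cell lines were grown in 96-well plates and treated with compound for 48 hours. GI50 marks 50% less growth. TGI denotes the concentration required for complete inhibition of growth.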
Columns and labels:
Assay in all cases: NCI tumour cell line growth inhibition, 48 h
MDA-N = tested on: MDA-N
BT-549 breast = tested on: BT-549 breast
SNB-78 CNS = tested on: SNB-78 CNS
DLD-1 colon = tested on: DLD-1 colon
DMS 114 small cell lung = tested on: DMS 114 small cell lung
DMS 273 small cell lung = tested on: DMS 273 small cell lung
HOP-18 NSCLC = tested on: HOP-18 NSCLC
XF 498 CNS = tested on: XF 498 CNS
RXF-631 renal = tested on: RXF-631 renal

SMILES	TGI (MDA-N)	TGI (BT-549 breast)	TGI (SNB-78 CNS)	TGI (DLD-1 colon)	TGI (DMS 114 small cell lung)	TGI (DMS 273 small cell lung)	TGI (HOP-18 NSCLC)	TGI (XF 498 CNS)	also measured
S=C(N/N=C(/c1ccccc1)c1ccccn1)Nc1cccc(Cl)c1	7.35 µM and 6.85 µM	6.22 µM							GI50 (MDA-N): 1.14 µM
O=C1OC2C(O)C(=O)OC2C1O (stereo unspecified)	> 100 µM								
c1ccc(C2N3CCCCC3[C@@H]3c4[nH]c5ccccc5c4CCN23)cc1 (stereo partly specified)			> 100 µM	> 100 µM	> 100 µM	> 100 µM	> 100 µM	> 100 µM	
CNC1C(OC2C(OC3C(O)C(O)C(O)C(O)C3O)OC(C)C2(O)CO)OC(CO)C(O)C1O (stereo unspecified) (tested in a mixture with another compound)	> 100 µM	> 100 µM							
CN(C)CCC1(C2=CCCC2)CC/C(=C\c2ccccc2)C1=O (stereo unspecified)			46.2 µM	37.5 µM	33.2 µM	29 µM	29.2 µM		
CC1(C)OC(=O)C(=C2CC(c3ccccc3)c3ccccc32)C(=O)O1 (stereo unspecified)			> 100 µM	> 100 µM	> 100 µM		> 100 µM		TGI (RXF-631 renal): > 100 µM
C[n+]1ccc(-c2c3nc(c(-c4ccc5c(ccc[n+]5C)c4)c4ccc([nH]4)c(-c4cc[n+](C)cc4)c4nc(c(-c5ccc6c(ccc[n+]6C)c5)c5ccc2[nH]5)C=C4)C=C3)cc1	> 50 µM	> 50 µM							GI50 (MDA-N): 30 µM; GI50 (BT-549 breast): 35.9 µM
CN1CCCCC1CCN1c2ccccc2Sc2ccc(S(C)=O)cc21 (stereo unspecified)	> 100 µM	> 100 µM							
O=c1/c(=C/c2ccc3c(c2)OCO3)sc2nnc(-c3ccco3)n12			> 100 µM	> 100 µM	> 100 µM	> 100 µM	> 100 µM	> 100 µM	
Cc1cccc(NC(=O)CC#N)c1Cl			> 100 µM	> 100 µM		> 100 µM		> 100 µM	
COc1ccc(C#CCC(OC2OC(CO)C(O)C(O)C2O)C(O)c2ccc(OC)c(OC)c2)cc1OC (stereo unspecified)			> 100 µM	> 100 µM		> 100 µM	> 100 µM		
COc1ccc(CC2C3=C(CCCC3)CCN2C)cc1 (stereo unspecified)	> 100 µM								
CC([O-])C(=O)[O-].NCC1CCC1CN.[Pt+4] (stereo unspecified)	> 10 µM	> 10 µM							GI50 (MDA-N): > 10 µM; GI50 (BT-549 breast): > 10 µM
CCC/C(=N\NC(=O)c1cc2ccccc2cc1O)C(CC)C(=O)CCC(=O)N(Cc1ccccc1)Cc1ccccc1 (stereo unspecified)			> 100 µM	> 100 µM	59.7 µM	52.8 µM	91.1 µM		TGI (RXF-631 renal): > 100 µM
O=C(c1ccc2c3c(ccc(C(=O)C(F)(F)F)c13)CC2)C(F)(F)F			> 100 µM	> 100 µM	> 100 µM	> 100 µM	> 100 µM	50.2 µM	
Cc1cc2c(cc1C)[n+](=O)c(C(=O)/C=C/c1ccccc1Cl)c(C)n2[O-]			> 100 µM	42.1 µM	53.4 µM	> 100 µM	> 100 µM	42.1 µM	TGI (RXF-631 renal): 84.9 µM
CSc1nc2c(c(=O)[nH]1)C(c1ccc(Cl)cc1)C1=C(N2)/C(=C/c2ccc(Cl)cc2)CNC1 (stereo unspecified)		3.68 µM							GI50 (BT-549 breast): 1.8 µM
CC(=O)c1ccc(NCN2C(=O)c3ccccc3C2=O)cc1	> 100 µM	> 100 µM							
Cc1ccc(C2=C(c3ccccc3)C(O)(c3ccc(C)cc3)C(c3ccccc3)=C2c2ccc(C)cc2)cc1			> 100 µM	> 100 µM	> 100 µM	> 100 µM		> 100 µM	
COc1cc(-c2cc(CCC(=O)Nc3ccccc3[N+](=O)[O-])n(-c3ccc([N+](=O)[O-])cc3[N+](=O)[O-])n2)ccc1O			> 100 µM	> 100 µM	> 100 µM	> 10 µM	> 10 µM	> 100 µM	GI50 (SNB-78 CNS): > 100 µM; GI50 (DLD-1 colon): > 100 µM; GI50 (DMS 114 small cell lung): > 100 µM; GI50 (RXF-631 renal): > 100 µM; TGI (RXF-631 renal): > 100 µM
CC(=O)OCC1OC(n2c(-c3ccccc3)c(C)c(C)c(C#N)c2=S)C(OC(C)=O)C(OC(C)=O)C1OC(C)=O (stereo unspecified)	> 50 µM and 56.6 µM								
CCC(/C(=N\Nc1c(Cl)cc(Cl)cc1Cl)c1ccccc1)n1ccnc1C (stereo unspecified)			42.2 µM	17.2 µM	22.3 µM	19.7 µM	30.1 µM		TGI (RXF-631 renal): 25 µM
O=C1c2ccccc2C(=O)c2c1ccc1c2OCO1	> 100 µM	> 100 µM							
CC1=C(C(=O)Nc2ccccc2C)C(c2ccc(C3C(C(=O)Nc4ccccc4C)=CNC=C3C(=O)Nc3ccccc3C)cc2)C(C(=O)Nc2ccccc2C)=C(C)N1			96.4 µM	37.4 µM	> 60.5 µM	47.3 µM	> 76 µM	41.6 µM	

— PubChem BioAssay (NCI)
